Data reported in patent US20230151025A1, “SUBSTITUTED THIAZOLOPYRIDINES, SALTS THEREOF AND THEIR USE AS HERBICIDALLY ACTIVE SUBSTANCES” (Bayer Aktiengesellschaft, priority 2020, published 2023).

How the values were obtained:
Assay type in all cases: in vivo
[1] = test system: Alopecurus myosuroides (ALOMY); assay: Herbicidal post-emergence action (B), 1280 g/ha; settings: rated visually after about 3 weeks vs untreated controls
Procedure, shortened: (§1)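 Compounds formulated as wettable powder or emulsion concentrate, with 0.5% additive, sprayed at 600 l/ha onto one-leaf-stage plants grown in sandy loam for 2 to 3 weeks. Damage rated visually against untreated plants roughly 3 weeks later; 0% = like control, 100% = plants died.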

[2] = test system: Amaranthus retroflexus (AMARE); assay: Herbicidal post-emergence action (B), 1280 g/ha; settings: rated visually after about 3 weeks vs untreated controls
Procedure, shortened: as §1

[3] = test system: Digitaria sanguinalis (DIGSA); assay: Herbicidal post-emergence action (B), 1280 g/ha; settings: rated visually after about 3 weeks vs untreated controls
Procedure, shortened: as §1

[4] = test system: Echinochloa crus-galli (ECHCG); assay: Herbicidal post-emergence action (B), 1280 g/ha; settings: rated visually after about 3 weeks vs untreated controls
Procedure, shortened: as §1

[5] = test system: Kochia scoparia (KCHSC; Bassia scoparia); assay: Herbicidal post-emergence action (B), 1280 g/ha
Procedure, shortened: as §1

Poa annua (POAAN) = assay: Herbicidal post-emergence action (B), 1280 g/ha; settings: rated visually after about 3 weeks vs untreated controls
Procedure, shortened: as §1

Setaria viridis (SETVI) [6] = assay: Herbicidal post-emergence action (B), 1280 g/ha; settings: rated visually after about 3 weeks vs untreated controls
Procedure, shortened: as §1

Stellaria media (STEME) = assay: Herbicidal post-emergence action (B), 1280 g/ha
Procedure, shortened: as §1

Veronica persica (VERPE) = assay: Herbicidal post-emergence action (B), 1280 g/ha
Procedure, shortened: as §1

[7] = test system: Polygonum convolvulus (POLCO); assay: Herbicidal pre-emergence action (C), 320 g/ha; settings: ca. 3 weeks
Procedure, shortened: (§2)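 Pre-emergence greenhouse test: visual damage rating at about 3 weeks relative to untreated plants, 100% meaning death and 0% no effect. Compounds, as wettable powders or emulsifiable concentrates with 0.5% additive, were applied at 320 g/ha (600 l water/ha) onto soil covering seeds sown in sandy loam.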

Viola tricolor (VIOTR) = assay: Herbicidal pre-emergence action (C), 320 g/ha; settings: ca. 3 weeks
Procedure, shortened: as §2

Setaria viridis (SETVI) [8] = assay: Herbicidal post-emergence action (D), 320 g/ha; settings: ca. 3 weeks
Procedure, shortened: (§3)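 Weeds sown in sandy loam and greenhouse-grown for 2 to 3 weeks, then sprayed at single-leaf stage with WP or EC formulations in water plus 0.5% additive at 600 l water/ha. After ca. 3 weeks, injury scored visually versus untreated controls: 0% = as control, 100% = plants dead.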

[9] = test system: Abutilon theophrasti (ABUTH); assay: Herbicidal post-emergence action (B), 1280 g/ha; settings: rated visually after about 3 weeks vs untreated controls
Procedure, shortened: as §1

Lolium rigidum (LOLRI) [10] = assay: Herbicidal post-emergence action (B), 1280 g/ha; settings: one-leaf stage, rated after about 3 weeks vs untreated controls, 100% activity = the plants have died, 0% = like control plants
Procedure, shortened: as §1

[11] = test system: Abutilon theophrasti (ABUTH); assay: Herbicidal pre-emergence action (C), 320 g/ha; settings: ca. 3 weeks
Procedure, shortened: as §2

[12] = test system: Matricaria inodora (MATIN); assay: Herbicidal pre-emergence action (C), 320 g/ha; settings: ca. 3 weeks
Procedure, shortened: as §2

[13] = test system: Abutilon theophrasti (ABUTH); assay: Herbicidal post-emergence action (D), 320 g/ha; settings: ca. 3 weeks
Procedure, shortened: as §3

[14] = test system: Digitaria sanguinalis (DIGSA); assay: Herbicidal post-emergence action (D), 320 g/ha; settings: ca. 3 weeks
Description: Seeds of mono- and dicotyledonous weed plants and crop plants were sown, in plastic or organic planting pots, in sandy loam, covered with soil and grown in a greenhouse under controlled growth conditions. 2 to 3 weeks after sowing, the test plants were sprayed in the single-leaf stage. The compounds according to the invention, formulated in form of wettable powders (WP) or as emulsifiable concentrates (EC), were sprayed onto the green plant parts as aqueous suspension or emulsion, with the addition of 0.5% of an additive, at an application rate of 600 l of water/ha (converted). The test plants were placed in the greenhouse for ca. 3 weeks under optimum growth conditions, and then the effect of the preparations was assessed visually in comparison with untreated controls (herbicidal effect in percent (%): 100% effect=plants have died off, 0% effect=as control plants).
Tables D1 to D13 below show the effects of selected compounds of the general formula (I) according to table 1 on various harmful plants and an application rate corresponding to 320 g/ha obtained by the experimental procedure mentioned above.

[15] = test system: Matricaria inodora (MATIN); assay: Herbicidal post-emergence action (B), 1280 g/ha; settings: rated visually after about 3 weeks vs untreated controls
Procedure, shortened: as §1

Avena fatua = assay: Herbicidal pre-emergence action (C), 320 g/ha; settings: ca. 3 weeks
Procedure, shortened: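 Weed and crop seeds sown in sandy loam; WP or EC formulations applied pre-emergence to the soil surface as aqueous suspension/emulsion with 0.5% additive at 600 l water/ha. Greenhouse-grown under optimum conditions; damage visually scored after ca. 3 weeks versus untreated controls (0% = as control, 100% = plants dead).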

Lolium rigidum (LOLRI) [16] = assay: Herbicidal post-emergence action (D), 320 g/ha; settings: ca. 3 weeks
Procedure, shortened: as §3

| SMILES | herbicidal activity ALOMY [1] [%] | herbicidal activity AMARE [2] [%] | herbicidal activity DIGSA [3] [%] | herbicidal activity ECHCG [4] [%] | herbicidal effect KCHSC [5] [%] | herbicidal activity POAAN (Poa annua (POAAN)) [%] | herbicidal activity SETVI (Setaria viridis (SETVI) [6]) [%] | herbicidal effect STEME (Stellaria media (STEME)) [%] | herbicidal effect VERPE (Veronica persica (VERPE)) [%] | herbicidal effect POLCO [7] [%] | herbicidal effect VIOTR (Viola tricolor (VIOTR)) [%] | herbicidal effect SETVI (Setaria viridis (SETVI) [8]) [%] | herbicidal activity ABUTH [9] [%] | LOLRI, activity rated visually (%) (Lolium rigidum (LOLRI) [10]) | herbicidal effect ABUTH [11] [%] | herbicidal effect MATIN [12] [%] | herbicidal activity MATIN [15] [%] | herbicidal effect AVEFA (Avena fatua) [%] | other results |
| --- | --- | --- | --- | --- | --- | --- | --- | --- | --- | --- | --- | --- | --- | --- | --- | --- | --- | --- | --- |
| Cc1cc2scnc2nc1-c1cccc(F)c1 [Example I-003, 5-(3-fluorophenyl)-6-methyl-thiazolo[4,5-b]pyridine] | 100 | 100 | 90 | 100 | 90 | 100 | 90 | 100 | 90 | 80 | 80 | 80 | – | – | – | – | – | – | – |
| CCc1cc2scnc2nc1-c1ccccc1F [Example I-023] | 100 | 100 | 100 | 100 | 90 | 100 | 100 | 100 | 90 | 80 | 80 | 80 | 100 | 100 | 80 | 90 | – | – | herbicidal effect ABUTH [13]: 80%; herbicidal effect DIGSA [14]: 80% |
| CCc1cc2scnc2nc1-c1cccc(F)c1 [Example I-029] | 100 | 100 | 100 | 100 | 100 | 100 | 100 | 100 | 90 | – | – | – | 100 | – | – | – | – | – | – |
| CCc1cc2scnc2nc1-c1ccc(F)cc1F [Example I-030] | 90 | 100 | 100 | 100 | 100 | 100 | 90 | 90 | 90 | 80 | – | – | 100 | 90 | – | – | – | – | – |
| CCc1cc2scnc2nc1-c1ccccc1 [Example I-051] | 100 | 100 | 100 | 100 | 90 | 100 | 100 | 100 | 100 | 80 | 100 | 80 | 90 | 100 | 90 | 90 | 100 | 90 | herbicidal effect LOLRI (Lolium rigidum (LOLRI) [16]): 80%; herbicidal effect DIGSA [14]: 80% |
| CCc1cc2scnc2nc1-c1ccccc1C [Example I-093] | 100 | 100 | 100 | 100 | 100 | 100 | 100 | 100 | 100 | – | – | – | 100 | 100 | – | 90 | 100 | 80 | herbicidal effect LOLRI (Lolium rigidum (LOLRI) [16]): 80% |
| Fc1ccccc1-c1nc2ncsc2cc1C1CC1 [Example I-102] | 100 | 100 | 100 | 100 | 100 | 90 | 100 | 100 | 100 | – | 80 | 80 | – | – | – | – | 90 | – | – |
| Cc1cc2scnc2nc1-c1ccc(F)cc1F [Example I-122] | 100 | 100 | 100 | 90 | 100 | 100 | 90 | 100 | 100 | – | – | – | 90 | – | – | – | – | 100 | – |
| COc1ccccc1-c1nc2ncsc2cc1C [Example I-124] | 100 | 90 | 100 | 90 | 100 | 100 | 90 | 100 | 100 | – | 90 | – | 100 | – | – | 80 | – | – | – |
| Cc1cc2scnc2nc1-c1sccc1Cl [Example I-137] | 100 | 100 | 100 | 100 | 90 | 100 | 100 | 100 | 100 | – | 90 | – | 90 | 90 | – | 90 | 90 | 80 | herbicidal effect DIGSA [14]: 90% |
| Cc1cc2scnc2nc1-c1sccc1C [Example I-143] | 100 | 100 | – | 100 | 100 | 100 | 90 | 100 | 100 | – | – | 80 | 100 | 100 | 80 | 90 | 100 | 90 | – |
| Fc1ccccc1-c1nc2ncsc2cc1I [Example I-188] | – | 100 | – | 90 | 90 | 90 | 90 | 90 | – | 80 | – | 100 | – | 90 | 80 | – | 90 | 100 | – |
